Experimental data published in PubChem BioAssay AID1963852 (Molecular Pharmacology Branch, DTP, NCI, 2024).

Tested on: 282377-053-R-J1-PDC complex spheroid viability
Assay: Anticancer human tumor 282377-053-R-J1-PDC patient-derived colon adenocarcinoma cell line growth inhibition [POLQ]
Details: for IC50: curve of first compound; for viability, T/C: stronger effect = lower value
How it was run: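 Complex spheroid viability model combining PDC tumour cells with endothelial (HUVEC) and MSC stromal cells. Novobiocin, ART-558 or RP6685 were tested singly and in combination with standard and investigational anticancer drugs. Each was titrated in half-log steps from near clinical Cmax, or from 10 microM where Cmax was unknown.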

[1] = second compound 0.0316 µM, first compound 0.0316 µM
[2] = second compound 0.0316 µM, first compound 0.1 µM
[3] = second compound 0.0316 µM, first compound 0.316 µM
[4] = second compound 0.0316 µM, first compound 1 µM
[5] = second compound 0.0316 µM, first compound 3.16 µM
[6] = second compound 0.0316 µM, first compound 10 µM
[7] = second compound 0.1 µM, first compound 0.0316 µM
[8] = second compound 0.1 µM, first compound 0.1 µM
[9] = second compound 0.1 µM, first compound 0.316 µM
[10] = second compound 0.1 µM, first compound 1 µM
[11] = second compound 0.1 µM, first compound 3.16 µM
[12] = second compound 0.1 µM, first compound 10 µM
[13] = second compound 0.316 µM, first compound 0.0316 µM
[14] = second compound 0.316 µM, first compound 0.1 µM
[15] = second compound 0.316 µM, first compound 0.316 µM
[16] = second compound 0.316 µM, first compound 1 µM
[17] = second compound 0.316 µM, first compound 3.16 µM
[18] = second compound 0.316 µM, first compound 10 µM
[19] = second compound 1 µM, first compound 0.0316 µM
[20] = second compound 1 µM, first compound 0.1 µM
[21] = second compound 1 µM, first compound 0.316 µM
[22] = second compound 1 µM, first compound 1 µM
[23] = second compound 1 µM, first compound 3.16 µM
[24] = second compound 1 µM, first compound 10 µM
[25] = second compound 3.16 µM, first compound 0.0316 µM
[26] = second compound 3.16 µM, first compound 0.1 µM
[27] = second compound 3.16 µM, first compound 0.316 µM
[28] = second compound 3.16 µM, first compound 1 µM
[29] = second compound 3.16 µM, first compound 3.16 µM
[30] = second compound 3.16 µM, first compound 10 µM
[31] = second compound 10 µM, first compound 0.0316 µM
[32] = second compound 10 µM, first compound 0.1 µM
[33] = second compound 10 µM, first compound 0.316 µM
[34] = second compound 10 µM, first compound 1 µM
[35] = second compound 10 µM, first compound 3.16 µM
[36] = second compound 10 µM, first compound 10 µM
[37] = second compound 0.0316 µM, first compound 0.00316 µM
[38] = second compound 0.0316 µM, first compound 0.01 µM
[39] = second compound 0.1 µM, first compound 0.00316 µM
[40] = second compound 0.1 µM, first compound 0.01 µM
[41] = second compound 0.316 µM, first compound 0.00316 µM
[42] = second compound 0.316 µM, first compound 0.01 µM
[43] = second compound 1 µM, first compound 0.00316 µM
[44] = second compound 1 µM, first compound 0.01 µM
[45] = second compound 3.16 µM, first compound 0.00316 µM
[46] = second compound 3.16 µM, first compound 0.01 µM
[47] = second compound 10 µM, first compound 0.00316 µM
[48] = second compound 10 µM, first compound 0.01 µM
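Also: spheroids exposed to compounds for seven days.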
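For viability, T/C in this document: 100% = DMSO vehicle control viability.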

SMILES: COc1cc(C2c3cc4c(cc3C(OC3OC5COC(C)OC5C(O)C3O)C3COC(=O)C23)OCO4)cc(OC)c1O (stereo not given) + Nc1ccc(C#CCN(C(=O)Cc2ncc(C(F)(F)F)cc2C(F)(F)F)c2ccc(F)cc2)nn1
- IC50 (second compound 0.0316 µM): > 10000 nM
- IC50 (second compound 0.1 µM): > 10000 nM
- IC50 (second compound 0.316 µM): > 10000 nM
- IC50 (second compound 1 µM): > 10000 nM
- IC50 (second compound 3.16 µM): > 10000 nM
- IC50 (second compound 10 µM): > 10000 nM
- viability, T/C [1]: 113%
- viability, T/C [2]: 88.9%
- viability, T/C [3]: 116%
- viability, T/C [4]: 114%
- viability, T/C [5]: 109%
- viability, T/C [6]: 108%
- viability, T/C [7]: 100%
- viability, T/C [8]: 97.8%
- viability, T/C [9]: 83.5%
- viability, T/C [10]: 94.3%
- viability, T/C [11]: 98%
- viability, T/C [12]: 87.3%
- viability, T/C [13]: 93.1%
- viability, T/C [14]: 99.3%
- viability, T/C [15]: 75.8%
- viability, T/C [16]: 99.7%
- viability, T/C [17]: 96.6%
- viability, T/C [18]: 93.5%
- viability, T/C [19]: 88.6%
- viability, T/C [20]: 98.6%
- viability, T/C [21]: 107%
- viability, T/C [22]: 121%
- viability, T/C [23]: 113%
- viability, T/C [24]: 83%
- viability, T/C [25]: 118%
- viability, T/C [26]: 102%
- viability, T/C [27]: 119%
- viability, T/C [28]: 127%
- viability, T/C [29]: 92.5%
- viability, T/C [30]: 91.9%
- viability, T/C [31]: 107%
- viability, T/C [32]: 122%
- viability, T/C [33]: 139%
- viability, T/C [34]: 146%
- viability, T/C [35]: 115%
- viability, T/C [36]: 106%

SMILES: COc1cccc(OCCCN)c1-c1cc(Nc2cnc(C#N)cn2)n[nH]1 + COC1C(OC(N)=O)C(O)C(Oc2ccc3c(O)c(NC(=O)c4ccc(O)c(CC=C(C)C)c4)c(=O)oc3c2C)OC1(C)C
- IC50 (second compound 0.0316 µM): 124 nM
- IC50 (second compound 0.1 µM): 56.2 nM
- IC50 (second compound 0.316 µM): 92.6 nM
- IC50 (second compound 1 µM): 111 nM
- IC50 (second compound 3.16 µM): 148 nM
- IC50 (second compound 10 µM): 93.6 nM
- viability, T/C [37]: 117%
- viability, T/C [38]: 106%
- viability, T/C [1]: 92.7%
- viability, T/C [2]: 51.4%
- viability, T/C [3]: 37.4%
- viability, T/C [4]: 29.5%
- viability, T/C [39]: 106%
- viability, T/C [40]: 114%
- viability, T/C [7]: 63.9%
- viability, T/C [8]: 46.2%
- viability, T/C [9]: 34.9%
- viability, T/C [10]: 25.6%
- viability, T/C [41]: 118%
- viability, T/C [42]: 83.9%
- viability, T/C [13]: 75.2%
- viability, T/C [14]: 46.4%
- viability, T/C [15]: 31.5%
- viability, T/C [16]: 30.9%
- viability, T/C [43]: 111%
- viability, T/C [44]: 76%
- viability, T/C [19]: 67.9%
- viability, T/C [20]: 60.6%
- viability, T/C [21]: 31%
- viability, T/C [22]: 33.2%
- viability, T/C [45]: 87.9%
- viability, T/C [46]: 84.3%
- viability, T/C [25]: 74.3%
- viability, T/C [26]: 49.3%
- viability, T/C [27]: 46.9%
- viability, T/C [28]: 30.5%
- viability, T/C [47]: 99.8%
- viability, T/C [48]: 81.4%
- viability, T/C [31]: 70.1%
- viability, T/C [32]: 47.4%
- viability, T/C [33]: 34.6%
- viability, T/C [34]: 26.5%

SMILES: O=C(c1cc(Cc2n[nH]c(=O)c3ccccc23)ccc1F)N1CCN(C(=O)C2CC2)CC1 + Cc1cccc(N(C)C(=O)C2C(O)CCN2c2nc(C)cc(C(F)(F)F)c2C#N)c1
- IC50 (second compound 0.0316 µM): > 10000 nM
- IC50 (second compound 0.1 µM): > 10000 nM
- IC50 (second compound 0.316 µM): > 10000 nM
- IC50 (second compound 1 µM): > 10000 nM
- IC50 (second compound 3.16 µM): > 10000 nM
- IC50 (second compound 10 µM): > 10000 nM
- viability, T/C [1]: 104%
- viability, T/C [2]: 107%
- viability, T/C [3]: 109%
- viability, T/C [4]: 107%
- viability, T/C [5]: 106%
- viability, T/C [6]: 80.7%
- viability, T/C [7]: 110%
- viability, T/C [8]: 108%
- viability, T/C [9]: 112%
- viability, T/C [10]: 90.9%
- viability, T/C [11]: 116%
- viability, T/C [12]: 80.4%
- viability, T/C [13]: 83.3%
- viability, T/C [14]: 94%
- viability, T/C [15]: 101%
- viability, T/C [16]: 87.3%
- viability, T/C [17]: 94%
- viability, T/C [18]: 85.3%
- viability, T/C [19]: 100%
- viability, T/C [20]: 92.2%
- viability, T/C [21]: 108%
- viability, T/C [22]: 111%
- viability, T/C [23]: 107%
- viability, T/C [24]: 95.3%
- viability, T/C [25]: 92.2%
- viability, T/C [26]: 117%
- viability, T/C [27]: 104%
- viability, T/C [28]: 88.6%
- viability, T/C [29]: 101%
- viability, T/C [30]: 101%
- viability, T/C [31]: 84.6%
- viability, T/C [32]: 110%
- viability, T/C [33]: 90.4%
- viability, T/C [34]: 110%
- viability, T/C [35]: 87%
- viability, T/C [36]: 107%

SMILES: COc1cccc(OCCCN)c1-c1cc(Nc2cnc(C#N)cn2)n[nH]1 + Nc1ccc(C#CCN(C(=O)Cc2ncc(C(F)(F)F)cc2C(F)(F)F)c2ccc(F)cc2)nn1
- IC50 (second compound 0.0316 µM): 370 nM
- IC50 (second compound 0.1 µM): 285 nM
- IC50 (second compound 0.316 µM): 298 nM
- IC50 (second compound 1 µM): 577 nM
- IC50 (second compound 3.16 µM): 242 nM
- IC50 (second compound 10 µM): 212 nM
- viability, T/C [37]: 128%
- viability, T/C [38]: 93.5%
- viability, T/C [1]: 85%
- viability, T/C [2]: 66.8%
- viability, T/C [3]: 55.3%
- viability, T/C [4]: 37%
- viability, T/C [39]: 89.7%
- viability, T/C [40]: 97.3%
- viability, T/C [7]: 72.9%
- viability, T/C [8]: 62.4%
- viability, T/C [9]: 51.8%
- viability, T/C [10]: 39%
- viability, T/C [41]: 94.9%
- viability, T/C [42]: 88.3%
- viability, T/C [13]: 73.4%
- viability, T/C [14]: 58.1%
- viability, T/C [15]: 53.2%
- viability, T/C [16]: 38%
- viability, T/C [43]: 110%
- viability, T/C [44]: 90.3%
- viability, T/C [19]: 76.4%
- viability, T/C [20]: 58.4%
- viability, T/C [21]: 53.7%
- viability, T/C [22]: 47.5%
- viability, T/C [45]: 97.6%
- viability, T/C [46]: 93.5%
- viability, T/C [25]: 81.3%
- viability, T/C [26]: 74.9%
- viability, T/C [27]: 39.7%
- viability, T/C [28]: 35.6%
- viability, T/C [47]: 103%
- viability, T/C [48]: 96.7%
- viability, T/C [31]: 99.9%
- viability, T/C [32]: 66.7%
- viability, T/C [33]: 43.3%
- viability, T/C [34]: 36.3%

SMILES: Nc1ccn(C2OC(CO)C(O)C2(F)F)c(=O)n1 (stereo not given) + COC1C(OC(N)=O)C(O)C(Oc2ccc3c(O)c(NC(=O)c4ccc(O)c(CC=C(C)C)c4)c(=O)oc3c2C)OC1(C)C
- IC50 (second compound 0.0316 µM): 83.7 nM
- IC50 (second compound 0.1 µM): 138 nM
- IC50 (second compound 0.316 µM): 123 nM
- IC50 (second compound 1 µM): 114 nM
- IC50 (second compound 3.16 µM): 90.9 nM
- IC50 (second compound 10 µM): 95.6 nM
- viability, T/C [1]: 80.7%
- viability, T/C [2]: 41.5%
- viability, T/C [3]: 28.9%
- viability, T/C [4]: 27.2%
- viability, T/C [5]: 22.7%
- viability, T/C [6]: 11.6%
- viability, T/C [7]: 79.7%
- viability, T/C [8]: 60.3%
- viability, T/C [9]: 23%
- viability, T/C [10]: 26%
- viability, T/C [11]: 20.7%
- viability, T/C [12]: 13.5%
- viability, T/C [13]: 107%
- viability, T/C [14]: 51.5%
- viability, T/C [15]: 32.5%
- viability, T/C [16]: 27.8%
- viability, T/C [17]: 21.1%
- viability, T/C [18]: 12.5%
- viability, T/C [19]: 93%
- viability, T/C [20]: 48%
- viability, T/C [21]: 32%
- viability, T/C [22]: 33.3%
- viability, T/C [23]: 21.8%
- viability, T/C [24]: 10.6%
- viability, T/C [25]: 76.5%
- viability, T/C [26]: 47.1%
- viability, T/C [27]: 27.9%
- viability, T/C [28]: 27.8%
- viability, T/C [29]: 21.3%
- viability, T/C [30]: 11.1%
- viability, T/C [31]: 90.2%
- viability, T/C [32]: 47.2%
- viability, T/C [33]: 28.1%
- viability, T/C [34]: 32.7%
- viability, T/C [35]: 24%
- viability, T/C [36]: 13.8%
